Measured values from patent US20090325959A1 (priority 2008, published 2009).
pKi: −log10 of the molar value. Like-named read-outs stand apart in the source and are kept apart here.

Legend:
[1] = molecular target: T1, ROCK1 (Homo sapiens, UniProt Q13464); test: Rho kinase inhibition assay (IMAP fluorescence polarization), ROCK1; format: biochemical;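 note: kinase reaction run 60 min at room temperature, then phosphorylated substrate captured on IMAP beads for 30 min, with fluorescence polarization read in mP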
T1 construct: purchased Upstate/Chemicon 14-601
Experimental: (§1) Following the pre-incubation, 10 μM ATP was added to initiate the reaction. After 60 minutes at room temperature, Molecular Devices IMAP™ binding solution was added to bind phosphorylated substrate. After 30 minutes of incubation in the presence of the IMAP™ beads, the fluorescence polarization was read and the ratio was reported as mP. IC50 values for compounds and EC50 values for ATP were calculated using the Prism software from Graphpad.

[2] = molecular target: T2, ROCK2 (Homo sapiens, UniProt O75116); test: Rho kinase inhibition assay (IMAP fluorescence polarization), ROCK2; format: biochemical;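 note: kinase reaction started with 10 µM ATP and run 60 min at room temperature, then phosphorylated substrate captured on IMAP beads for 30 min and fluorescence polarization read in mP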
T2 construct: purchased Upstate/Chemicon 14-451
Experimental: as §1

[3] = molecular target: T3, p70S6K human enzyme (Homo sapiens, UniProt P23443, T412E); test: p70S6K inhibition assay (IMAP FP); format: biochemical; conditions: 30 μM ATP; Ki=IC50/(1+([ATP Challenge]/EC50 ATP)); read-out: p70S6K Ki, Avg;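 note: kinase reaction run at room temperature, phosphorylated substrate captured on IMAP beads and read as fluorescence polarization in mP, IC50 then converted to Ki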
T3 construct: purchased Upstate Chemicon 14-486

[4] = molecular target: T4, Akt3 human enzyme (Homo sapiens, UniProt Q9Y243); test: Akt3 inhibition assay (IMAP FP); format: biochemical; conditions: 30 μM ATP; Ki=IC50/(1+([ATP Challenge]/EC50 ATP)); read-out: Akt3 Ki, Avg;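 note: kinase reaction run 60 min at room temperature after 30 µM ATP start, phosphorylated substrate captured on IMAP beads and read as fluorescence polarization (mP)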
T4 construct: purchased Upstate Chemicon 14-502
Experimental: Inhibition of Akt3 and p70S6K activity was determined using the IMAP™ FP Progressive Binding Kit (Molecular Devices product number R8127). […] Following the pre-incubation, 30 μM ATP was added to initiate the reaction. After 60 minutes at RT, Molecular Devices IMAP™ binding solution was added to bind phosphorylated substrate. After 30 minutes of incubation in the presence of the IMAP™ beads the fluorescence polarization was read and the ratio was reported as mP. IC50 results were calculated using the Prism software from Graphpad. The Ki values were determined according to the following formula: Ki=IC50/(1+([ATP Challenge]/EC50 ATP)).

[5] = Compound plasma concentrations in unsensitized mice at 15 min post administration; format: in vivo; conditions: mouse, 15 μmol/kg; mean compound plasma concentration in mice at 15 minutes post oral administration; read-out: Mouse Oral PK
[6] = 10 μM ATP, read-out: ROCK2 Ki, Avg

T2 sequence (O75116 11-552 limits assumed): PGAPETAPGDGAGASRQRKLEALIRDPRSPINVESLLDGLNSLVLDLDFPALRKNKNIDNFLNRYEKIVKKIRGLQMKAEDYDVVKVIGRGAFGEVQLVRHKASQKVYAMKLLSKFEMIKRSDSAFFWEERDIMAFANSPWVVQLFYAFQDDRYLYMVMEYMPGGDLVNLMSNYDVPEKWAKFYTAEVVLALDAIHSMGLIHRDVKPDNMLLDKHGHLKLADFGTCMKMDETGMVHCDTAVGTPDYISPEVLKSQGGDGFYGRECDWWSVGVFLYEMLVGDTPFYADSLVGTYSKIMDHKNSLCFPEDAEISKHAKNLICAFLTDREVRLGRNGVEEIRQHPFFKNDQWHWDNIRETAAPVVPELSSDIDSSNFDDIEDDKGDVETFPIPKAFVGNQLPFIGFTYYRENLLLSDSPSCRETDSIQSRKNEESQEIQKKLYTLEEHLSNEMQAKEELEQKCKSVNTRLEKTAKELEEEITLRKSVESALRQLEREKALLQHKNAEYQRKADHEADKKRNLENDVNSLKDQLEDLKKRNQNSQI
T3 sequence (P23443 1-421 T412E limits assumed): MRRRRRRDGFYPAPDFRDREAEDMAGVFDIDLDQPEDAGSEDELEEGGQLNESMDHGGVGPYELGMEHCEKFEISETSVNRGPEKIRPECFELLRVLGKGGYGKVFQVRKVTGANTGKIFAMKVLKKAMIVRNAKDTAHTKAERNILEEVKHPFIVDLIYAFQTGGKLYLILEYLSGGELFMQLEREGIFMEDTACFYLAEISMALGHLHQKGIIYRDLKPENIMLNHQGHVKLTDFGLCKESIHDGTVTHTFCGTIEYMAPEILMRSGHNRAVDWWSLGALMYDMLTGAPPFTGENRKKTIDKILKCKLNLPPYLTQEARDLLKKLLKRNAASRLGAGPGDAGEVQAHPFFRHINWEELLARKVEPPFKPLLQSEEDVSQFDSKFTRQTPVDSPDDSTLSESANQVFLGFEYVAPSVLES
T4 sequence (Q9Y243 whole entry): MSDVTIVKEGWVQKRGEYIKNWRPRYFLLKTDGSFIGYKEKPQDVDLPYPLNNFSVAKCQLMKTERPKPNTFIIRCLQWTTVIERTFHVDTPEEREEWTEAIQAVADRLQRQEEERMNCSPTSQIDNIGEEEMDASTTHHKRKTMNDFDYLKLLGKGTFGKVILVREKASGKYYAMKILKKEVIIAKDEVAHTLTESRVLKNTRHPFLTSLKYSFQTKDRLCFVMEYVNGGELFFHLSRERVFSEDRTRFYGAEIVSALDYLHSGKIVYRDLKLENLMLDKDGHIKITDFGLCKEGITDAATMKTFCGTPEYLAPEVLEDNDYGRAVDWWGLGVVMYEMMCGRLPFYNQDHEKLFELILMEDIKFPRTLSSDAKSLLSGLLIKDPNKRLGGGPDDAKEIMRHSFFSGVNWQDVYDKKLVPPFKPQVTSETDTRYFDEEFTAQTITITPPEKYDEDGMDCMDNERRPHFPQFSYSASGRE
T1 sequence (Q13464 17-535 limits assumed): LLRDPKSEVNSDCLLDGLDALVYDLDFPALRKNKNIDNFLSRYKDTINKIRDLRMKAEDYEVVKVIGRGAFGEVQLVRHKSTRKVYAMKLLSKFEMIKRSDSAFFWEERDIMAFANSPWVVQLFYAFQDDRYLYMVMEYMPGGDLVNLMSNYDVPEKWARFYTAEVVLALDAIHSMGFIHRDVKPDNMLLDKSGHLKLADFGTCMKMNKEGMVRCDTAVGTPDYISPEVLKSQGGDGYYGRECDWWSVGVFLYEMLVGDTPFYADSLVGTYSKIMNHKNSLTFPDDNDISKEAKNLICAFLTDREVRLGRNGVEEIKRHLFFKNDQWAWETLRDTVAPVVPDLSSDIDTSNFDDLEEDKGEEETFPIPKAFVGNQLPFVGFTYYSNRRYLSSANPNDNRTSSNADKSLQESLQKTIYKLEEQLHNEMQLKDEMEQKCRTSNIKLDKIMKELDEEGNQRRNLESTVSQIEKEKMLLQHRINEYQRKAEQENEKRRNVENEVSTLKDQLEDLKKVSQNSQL

SMILES | pKi ([1]; Avg, 10 μM ATP) | pKi [2, 6] | pKi [3] | pKi [4] | pKi ([1]; average Ki) | concentration at 15 min [5] | pKi ([2]; average Ki, read-out: ROCK2 Ki)
Brc1cccc(CN2CCC[C@H](Nc3ccc4[nH]ncc4c3)C2)c1 [Compound 1.183, (S)-N-(1-(3-bromobenzyl)piperidin-3-yl)-1H-indazol-5-amine] | 6.78 | 7.77 | 5.61 | 5.05 | – | – | –
c1cc(C2CC2)ccc1CN1CCC[C@H](Nc2ccc3[nH]ncc3c2)C1 [Compound 1.185, (S)-N-(1-(4-cyclopropylbenzyl)piperidin-3-yl)-1H-indazol-5-amine] | 7.09 | 7.90 | 5.94 | 5.38 | – | – | –
C#Cc1cccc(CN2CCC[C@@H](Nc3ccc4[nH]ncc4c3)C2)c1 [Compound 1.193, (R)-N-(1-(3-ethynylbenzyl)piperidin-3-yl)-1H-indazol-5-amine] | 7.19 | 7.83 | – | – | 7.19 | 55 nM | 7.83
C=Cc1ccc(CN2CCC[C@@H](Nc3ccc4[nH]ncc4c3)C2)cc1 [Compound 1.208, (R)-N-(1-(4-vinylbenzyl)piperidin-3-yl)-1H-indazol-5-amine] | 7.27 | 7.89 | 6.14 | 6.46 | – | – | –
COc1ccc(CN2CCC[C@@H](Nc3ccc4[nH]ncc4c3)C2)cc1 [Compound 1.226, (R)-N-(1-(4-methoxybenzyl)piperidin-3-yl)-1H-indazol-5-amine] | 7.04 | 8.06 | 5.87 | 6.27 | – | – | –
c1ccc(CN2CCC[C@H](Nc3ccc4[nH]ncc4c3)C2)cc1 [Compound 1.227, (S)-N-(1-benzylpiperidin-3-yl)-1H-indazol-5-amine] | 7.32 | 8.28 | 5.80 | 5.46 | – | – | –
C=Cc1ccc(CN2CCC[C@H](Nc3ccc4[nH]ncc4c3)C2)cc1 [Compound 1.229, (S)-N-(1-(4-vinylbenzyl)piperidin-3-yl)-1H-indazol-5-amine] | 6.92 | 7.74 | 5.50 | 4.61 | – | – | –
c1cc2c(cc1CN1CCC[C@@H](Nc3ccc4[nH]ncc4c3)C1)CCO2 [Compound 1.246, (R)-N-(1-((2,3-dihydrobenzofuran-5-yl)methyl)piperidin-3-yl)-1H-indazol-5-amine] | 7.04 | 7.95 | 5.73 | 5.96 | – | – | –
CCS(=O)(=O)Nc1cc(CN2CCC[C@@H](Nc3ccc4[nH]ncc4c3)C2)ccc1C [Compound 1.259, (R)-N-(5-((3-(1H-indazol-5-ylamino)piperidin-1-yl)methyl)-2-methylphenyl)ethanesulfonamide] | 7.71 | 8.68 | – | – | 7.71 | 264 nM | 8.68
Cc1ccc(S(=O)(=O)Nc2cc(CN3CCC[C@@H](Nc4ccc5[nH]ncc5c4)C3)ccc2C)cc1 [Compound 1.260, (R)-N-(5-((3-(1H-indazol-5-ylamino)piperidin-1-yl)methyl)-2-methylphenyl)-4-methylbenzenesulfonamide] | 7.15 | 8.15 | – | – | 7.15 | 291 nM | 8.15
c1cc(N[C@@H]2CCN(Cc3ccc4cc[nH]c4c3)C2)c2ccncc2c1 [Compound 2.057, (R)-N-(1-((1H-indol-6-yl)methyl)pyrrolidin-3-yl)isoquinolin-5-amine] | 8.21 | 8.43 | – | – | 8.21 | 431 nM | 8.43
Oc1cccc(CN2CC[C@@H](Nc3cccc4cnccc34)C2)c1 [Compound 2.061, (R)-3-((3-(isoquinolin-5-ylamino)pyrrolidin-1-yl)methyl)phenol] | 7.98 | 8.74 | – | – | 7.98 | 73 nM | 8.74
c1cc(N[C@@H]2CCN(Cc3ccc4[nH]ccc4c3)C2)c2ccncc2c1 [Compound 2.065, (R)-N-(1-((1H-indol-5-yl)methyl)pyrrolidin-3-yl)isoquinolin-5-amine] | 8.39 | 8.74 | – | – | 8.39 | 236 nM | 8.74
